Measured values as given in publication PMC7686313, “Phase 1 study of mTORC1/2 inhibitor sapanisertib (TAK-228) in advanced solid tumours, with an expansion phase in renal, endometrial or bladder cancer” (British Journal of Cancer, 2020).

How the values were obtained:
[1] = Dose escalation: dose-limiting toxicities and maximum tolerated dose; format: in vivo
From the text: This Phase 1, open-label, dose-escalation and expansion study aimed to determine the safety, tolerability and preliminary efficacy of sapanisertib in patients with advanced solid tumours. During dose-escalation, patients received one of four sapanisertib dosing schedules: once daily (QD), once weekly (QW; days 1, 8, 15 and 22), QD for 3 days on/4 days off each week (QD × 3dQW; days 1–3, 8–10, 15–17 and 22–24) and QD for 5 days on/2 days off each week (QD × 5dQW; days 1–5, 8–12, 15–19 and 22–26) in a 28-day cycle with dose escalation based on a modified Fibonacci schema.
The maximum tolerated dose (MTD) was to be determined in the QD schedule before enrolment of initial single-patient cohorts for the QW and QDx3d QW schedules. […] Subsequent dose cohorts for that schedule included 3–6 patients. […] Once the MTD was identified for each of the dosing schedules, an additional six patients were enrolled to obtain further PK and safety data prior to expansion.

[2] = tested on: p4EBP1, pS6, pPRAS40 and pNDRG1 (TORC1/2 biomarkers); experiment: Pharmacodynamics in paired tumour biopsies; format: in vivo, human; details: five patients with paired tumour samples; baseline vs cycle 1, week 2
Protocol: The tissue PK and PD of sapanisertib were investigated in skin and tumour biopsies. During dose escalation, 3-mm core skin biopsies were collected predose and on any day from 8–15 (3 h postdose) of cycle 1 for immunohistochemistry (IHC) assessment of mTORC1 downstream effects (p4EBP1, pS6) and pNDRG1 (Mosaic Laboratories, Lake Forest, CA). […] Archival tumour tissues for assessment of prognostic markers were collected at baseline.
During dose-escalation, the PD effect of sapanisertib on downstream effectors of TORC1 (p4EBP1 and pS6) and TORC2 (pPRAS40 and pNDRG1) was measured in skin-tissue biopsies from 88 patients collected at baseline and days 8–15 (3 h postdose) of cycle 1. […] PD data in tumour tissue were limited due to the small number of samples. For the five patients with paired tumour samples available for review (biopsies at baseline and cycle 1, week 2), the levels of p4EBP1, pS6, pPRAS40 and pNDRG1 decreased after sapanisertib treatment (Supplementary Fig. 4).

SMILES: CC(C)n1nc(-c2ccc3oc(N)nc3c2)c2c(N)ncnc21 [Sapanisertib]
- Recommended Phase 2 dose ([1]; QD): 5 mg
- DLTs ([1]; QD 4 mg): Grade 3 hyperglycaemia
- DLTs ([1]; QD 6 mg): Grade 3 maculo-papular rash; grade 3 diarrhoea; grade 3 asthenia; grade 5 ventricular fibrillation/cardiac arrest
- DLTs ([1]; QD 7 mg): Grade 3 hyperglycaemia and grade 4 anaemia; grade 3 maculo-papular rash
- Maximum tolerated dose (MTD) ([1]; QD schedule): 6 mg
- DLTs ([1]; QD × 3dQW 9 mg): Grade 3 hypophosphatemia
- DLTs ([1]; QD × 3dQW 12 mg): Grade 3 stomatitis and grade 3 dehydration; grade 3 asthenia
- DLTs ([1]; QD × 3dQW 16 mg): Grade 3 stomatitis
- DLTs ([1]; QD × 3dQW 20 mg): Grade 3 stomatitis; grade 3 stomatitis
- Maximum tolerated dose (MTD) ([1]; QD × 3dQW schedule): 9 mg
- DLTs ([1]; QD × 5dQW 13 mg): Grade 3 fatigue; grade 3 asthenia; grade 3 stomatitis
- Maximum tolerated dose (MTD) ([1]; QD × 5dQW schedule): 7 mg
- Recommended Phase 2 dose ([1]; QW): 30 mg
- DLTs ([1]; QW 40 mg): Grade 3 dry mouth and fatigue; grade 3 asthenia
- Maximum tolerated dose (MTD) ([1]; QW schedule): 40 mg
- Levels of p4EBP1, pS6, pPRAS40 and pNDRG1 in tumour [2]: decreased
